Laboratory results reported in patent publication US5051403A (priority 1989, dated 1991).
Several values for one entry are separate records, joined by “and”; a condition that tells them apart may be missing. Identical values can stand only once. Bridge positions count the residues as written; N and C are the ends. Square brackets hold non-standard residues; d marks the D form. Peptide text beside a SMILES is read from it. Hyp = O=C(O)[C@@H]1C[C@@H](O)CN1

Assays:
[1] = system: hippocampal CA1 region, gerbil global ischemia model; set-up: species or system Meriones unguiculatus (mongolian gerbil); details: in vivo
[2] = target: OCT binding sites, elasmobranch electric organ synaptosomes (Diplobatis ommata, UniProt P56698); assay: biochemical; set-up: species or system Ommata dyscopyge (marine electric ray)
Chain of OCT binding sites, elasmobranch electric organ synaptosomes (P56698 whole entry, looked up): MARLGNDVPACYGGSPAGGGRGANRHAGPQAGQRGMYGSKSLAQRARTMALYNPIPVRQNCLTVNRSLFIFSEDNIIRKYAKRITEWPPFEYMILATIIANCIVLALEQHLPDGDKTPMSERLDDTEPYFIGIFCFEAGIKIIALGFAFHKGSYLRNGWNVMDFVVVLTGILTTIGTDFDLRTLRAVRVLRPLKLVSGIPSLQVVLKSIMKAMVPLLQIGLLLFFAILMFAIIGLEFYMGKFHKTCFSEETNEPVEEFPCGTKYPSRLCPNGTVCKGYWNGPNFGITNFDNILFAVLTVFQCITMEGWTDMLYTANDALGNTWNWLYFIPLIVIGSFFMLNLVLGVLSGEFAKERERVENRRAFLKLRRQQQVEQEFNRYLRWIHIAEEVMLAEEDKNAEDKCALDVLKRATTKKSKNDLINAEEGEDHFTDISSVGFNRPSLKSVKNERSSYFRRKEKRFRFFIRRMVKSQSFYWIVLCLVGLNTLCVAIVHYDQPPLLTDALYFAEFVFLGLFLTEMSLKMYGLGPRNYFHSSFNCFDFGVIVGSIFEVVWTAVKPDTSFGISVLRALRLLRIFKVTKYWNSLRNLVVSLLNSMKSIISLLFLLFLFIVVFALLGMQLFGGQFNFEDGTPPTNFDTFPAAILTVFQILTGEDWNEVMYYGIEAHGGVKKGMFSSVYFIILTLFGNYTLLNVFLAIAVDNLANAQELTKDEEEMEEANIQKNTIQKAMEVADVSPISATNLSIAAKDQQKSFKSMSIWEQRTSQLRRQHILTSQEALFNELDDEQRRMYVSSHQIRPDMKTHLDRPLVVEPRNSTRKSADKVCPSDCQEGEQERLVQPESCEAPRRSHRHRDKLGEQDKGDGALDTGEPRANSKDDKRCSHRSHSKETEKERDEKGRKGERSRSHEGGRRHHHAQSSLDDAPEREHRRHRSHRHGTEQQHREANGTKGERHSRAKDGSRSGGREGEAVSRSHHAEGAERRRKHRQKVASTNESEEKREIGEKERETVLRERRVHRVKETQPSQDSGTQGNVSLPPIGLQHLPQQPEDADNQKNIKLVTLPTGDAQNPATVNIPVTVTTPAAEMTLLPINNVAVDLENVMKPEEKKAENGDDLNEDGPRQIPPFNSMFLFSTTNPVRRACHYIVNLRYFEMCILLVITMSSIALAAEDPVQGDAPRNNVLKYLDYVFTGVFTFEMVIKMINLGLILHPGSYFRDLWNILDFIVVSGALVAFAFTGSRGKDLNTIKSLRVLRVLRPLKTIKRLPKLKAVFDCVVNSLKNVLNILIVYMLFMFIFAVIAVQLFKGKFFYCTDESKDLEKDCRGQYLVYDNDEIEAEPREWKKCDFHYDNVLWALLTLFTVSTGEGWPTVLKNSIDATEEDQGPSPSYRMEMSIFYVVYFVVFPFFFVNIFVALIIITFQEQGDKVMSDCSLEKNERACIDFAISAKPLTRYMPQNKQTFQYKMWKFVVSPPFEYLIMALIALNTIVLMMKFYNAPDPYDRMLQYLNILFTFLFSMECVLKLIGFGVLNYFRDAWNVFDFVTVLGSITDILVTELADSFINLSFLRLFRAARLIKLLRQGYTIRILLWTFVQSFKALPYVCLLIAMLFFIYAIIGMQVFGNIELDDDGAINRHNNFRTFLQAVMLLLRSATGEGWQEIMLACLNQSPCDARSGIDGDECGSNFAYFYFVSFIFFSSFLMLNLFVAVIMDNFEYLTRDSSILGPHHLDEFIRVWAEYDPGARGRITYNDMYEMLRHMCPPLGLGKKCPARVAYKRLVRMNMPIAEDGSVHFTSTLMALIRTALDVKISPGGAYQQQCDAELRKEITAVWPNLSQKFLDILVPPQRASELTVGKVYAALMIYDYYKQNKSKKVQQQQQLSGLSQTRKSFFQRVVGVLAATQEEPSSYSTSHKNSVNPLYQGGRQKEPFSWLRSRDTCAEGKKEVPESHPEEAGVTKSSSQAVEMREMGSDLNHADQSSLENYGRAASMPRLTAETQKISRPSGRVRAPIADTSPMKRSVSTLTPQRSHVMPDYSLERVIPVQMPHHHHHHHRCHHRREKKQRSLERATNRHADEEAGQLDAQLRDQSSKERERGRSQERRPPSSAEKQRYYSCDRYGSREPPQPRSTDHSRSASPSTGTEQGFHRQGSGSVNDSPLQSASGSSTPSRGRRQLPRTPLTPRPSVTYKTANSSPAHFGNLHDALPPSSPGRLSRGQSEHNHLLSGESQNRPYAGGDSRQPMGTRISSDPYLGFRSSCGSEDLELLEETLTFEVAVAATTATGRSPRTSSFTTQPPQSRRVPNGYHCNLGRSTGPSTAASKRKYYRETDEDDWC

[3] = system: depolarization-dependent ATP release from electric organ synaptosomes; format: biochemical, Ommata discopyge; details: read-out: IC50 (ATP release inhibition)
[4] = system: voltage-gated calcium channels, dorsal root ganglion (DRG) neurons; details: cited from earlier work
[5] = target: OCT binding site, rat brain synaptosomes (Rattus norvegicus, UniProt Q02294); assay: biochemical
Chain of OCT binding site, rat brain synaptosomes (Q02294 whole entry, looked up): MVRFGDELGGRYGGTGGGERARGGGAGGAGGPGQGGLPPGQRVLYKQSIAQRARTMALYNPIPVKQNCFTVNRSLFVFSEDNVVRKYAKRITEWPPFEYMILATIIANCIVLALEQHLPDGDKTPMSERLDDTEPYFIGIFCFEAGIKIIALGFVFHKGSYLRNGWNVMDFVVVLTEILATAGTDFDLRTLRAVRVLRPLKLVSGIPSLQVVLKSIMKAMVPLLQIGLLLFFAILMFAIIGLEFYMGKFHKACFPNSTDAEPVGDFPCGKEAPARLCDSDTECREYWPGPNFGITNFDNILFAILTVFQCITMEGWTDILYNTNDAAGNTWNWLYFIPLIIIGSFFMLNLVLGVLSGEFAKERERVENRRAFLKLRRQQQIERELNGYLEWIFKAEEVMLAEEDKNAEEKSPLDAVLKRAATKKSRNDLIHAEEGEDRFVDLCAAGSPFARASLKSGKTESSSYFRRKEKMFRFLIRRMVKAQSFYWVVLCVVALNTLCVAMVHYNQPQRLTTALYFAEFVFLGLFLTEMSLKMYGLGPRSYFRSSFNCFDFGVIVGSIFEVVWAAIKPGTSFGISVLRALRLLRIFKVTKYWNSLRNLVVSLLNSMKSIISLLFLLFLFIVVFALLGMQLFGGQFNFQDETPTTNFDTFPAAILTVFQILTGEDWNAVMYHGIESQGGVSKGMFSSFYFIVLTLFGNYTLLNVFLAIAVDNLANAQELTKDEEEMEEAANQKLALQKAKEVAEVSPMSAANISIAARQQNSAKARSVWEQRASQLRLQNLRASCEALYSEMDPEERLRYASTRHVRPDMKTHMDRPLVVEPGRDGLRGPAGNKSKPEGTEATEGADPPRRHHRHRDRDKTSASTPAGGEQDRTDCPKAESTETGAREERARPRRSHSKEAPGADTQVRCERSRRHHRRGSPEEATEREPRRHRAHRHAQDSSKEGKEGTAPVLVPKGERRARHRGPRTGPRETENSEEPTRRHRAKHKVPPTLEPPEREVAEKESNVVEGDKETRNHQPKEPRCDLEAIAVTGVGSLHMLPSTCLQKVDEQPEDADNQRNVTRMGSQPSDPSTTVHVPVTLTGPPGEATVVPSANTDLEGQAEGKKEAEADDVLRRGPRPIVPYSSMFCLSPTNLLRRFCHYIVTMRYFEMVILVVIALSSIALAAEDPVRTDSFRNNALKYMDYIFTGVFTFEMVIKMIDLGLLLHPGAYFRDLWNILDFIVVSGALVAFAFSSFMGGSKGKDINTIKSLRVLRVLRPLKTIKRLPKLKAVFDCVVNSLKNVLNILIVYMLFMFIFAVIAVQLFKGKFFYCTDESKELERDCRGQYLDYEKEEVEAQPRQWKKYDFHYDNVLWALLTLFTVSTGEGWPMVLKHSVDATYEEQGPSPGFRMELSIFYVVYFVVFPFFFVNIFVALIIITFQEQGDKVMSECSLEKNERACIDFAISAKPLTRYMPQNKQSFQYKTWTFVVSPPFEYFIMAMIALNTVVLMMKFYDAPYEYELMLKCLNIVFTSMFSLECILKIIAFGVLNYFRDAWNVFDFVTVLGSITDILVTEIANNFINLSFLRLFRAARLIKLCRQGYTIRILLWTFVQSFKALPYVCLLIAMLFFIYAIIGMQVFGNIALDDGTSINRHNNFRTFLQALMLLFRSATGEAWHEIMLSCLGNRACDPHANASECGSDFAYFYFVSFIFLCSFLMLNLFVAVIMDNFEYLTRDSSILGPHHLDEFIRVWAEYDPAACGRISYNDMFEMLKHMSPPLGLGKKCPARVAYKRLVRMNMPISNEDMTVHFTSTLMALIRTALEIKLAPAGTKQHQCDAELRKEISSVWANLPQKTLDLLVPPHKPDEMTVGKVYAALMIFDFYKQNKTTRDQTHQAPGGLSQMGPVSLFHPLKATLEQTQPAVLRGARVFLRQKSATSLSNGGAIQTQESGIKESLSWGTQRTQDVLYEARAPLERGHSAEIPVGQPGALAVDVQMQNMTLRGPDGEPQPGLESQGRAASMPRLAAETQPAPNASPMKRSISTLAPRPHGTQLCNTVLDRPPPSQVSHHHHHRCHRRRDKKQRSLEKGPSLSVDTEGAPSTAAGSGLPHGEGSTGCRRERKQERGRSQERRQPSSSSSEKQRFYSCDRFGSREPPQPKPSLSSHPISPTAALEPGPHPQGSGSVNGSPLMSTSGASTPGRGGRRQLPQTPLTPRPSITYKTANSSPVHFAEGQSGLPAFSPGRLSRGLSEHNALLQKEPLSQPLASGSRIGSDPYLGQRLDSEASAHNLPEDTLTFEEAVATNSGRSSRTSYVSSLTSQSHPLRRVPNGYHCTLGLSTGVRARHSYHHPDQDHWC

[6] = system: Male Swiss-Webster mice; details: mouse, in vivo; cited from earlier work
[7] = system: OCT receptor sites, 293 human kidney cells; format: binding
[8] = target: OCT receptor sites, PC-12 rat pheochromocytoma cells (Rattus norvegicus, UniProt Q02294); format: binding
Chain of OCT receptor sites, PC-12 rat pheochromocytoma cells (Q02294 whole entry, looked up): as above

[9] = system: hippocampal CA1 region, rat four-vessel occlusion model; set-up: species or system rat (Fisher 344); details: in vivo

Row | SMILES | Ki ([2]; pKi) | IC50 [5] | also measured
1 | C[C@@H](O)[C@@H]1NC(=O)[C@H](Cc2ccc(O)cc2)NC(=O)[C@@H]2C[C@@H](O)CN2C(=O)[C@H](CC(N)=O)NC(=O)[C@@H]2CSSC[C@@H]3NC(=O)[C@H](CO)NC(=O)[C@H](CO)NC(=O)CNC(=O)[C@@H]4C[C@@H](O)CN4C(=O)[C@H](CO)NC(=O)[C@H](CCCCN)NC(=O)[C@@H](N)CSSC[C@H](NC(=O)[C@H](CSSC[C@@H](C(=O)N[C@@H](Cc4ccc(O)cc4)C(N)=O)NC(=O)[C@H](CCCNC(=N)N)NC(=O)[C@H](CCCCN)NC1=O)NC(=O)[C@H](CC(N)=O)NC(=O)[C@H](Cc1ccc(O)cc1)NC(=O)[C@H](CO)NC(=O)[C@H]([C@@H](C)O)NC(=O)[C@@H]1C[C@@H](O)CN1C(=O)[C@H](CO)NC3=O)C(=O)N[C@@H](CCCNC(=N)N)C(=O)N[C@@H](CO)C(=O)N2 [GVIA, HCysLysSer4HypGlySerSerCysSer4HypThrSerTyrAsnCysCysArgSerCysAsn4HypTyrLysArgCysTyr-NH2] | 0.0141 µM | 0.00048 µM | Mean score (S.E.M), CA1 damage 0-4 [1]: 1.3 (.33) and 1.2 (.39); Percent Damage [1]: 42% and 39%; reduction in damage [1]: > 50%; IC50 [3]: 0.2 µM; block of voltage-gated calcium channels [4]: block voltage-gated calcium channels
2 | CSCC[C@@H]1NC(=O)CNC(=O)[C@H](CCCNC(=N)N)NC(=O)[C@H](CO)NC(=O)[C@@H]2CSSC[C@@H]3NC(=O)[C@H](CO)NC(=O)[C@H]([C@@H](C)O)NC(=O)[C@H](CSSC[C@H](N)C(=O)N[C@@H](CCCCN)C(=O)N[C@@H](CO)C(=O)N4C[C@H](O)C[C@H]4C(=O)NCC(=O)N[C@@H]([C@@H](C)O)C(=O)N4C[C@H](O)C[C@H]4C(=O)N2)NC(=O)[C@H](CSSC[C@@H](C(=O)N[C@@H](CCCNC(=N)N)C(=O)N[C@@H](CCCNC(=N)N)C(=O)N[C@@H](Cc2ccc(O)cc2)C(N)=O)NC(=O)[C@H](CCCCN)NC(=O)[C@H](CC(N)=O)NC(=O)[C@H](CO)NC(=O)[C@H](Cc2ccc(O)cc2)NC(=O)[C@H](CC(C)C)NC(=O)[C@H](CC(C)C)NC3=O)NC(=O)[C@H](CC(=O)O)NC(=O)[C@H](CCCNC(=N)N)NC1=O [GVIIA] (H-CKS[Hyp]GT[Hyp]CSRGMRDCCTSCLLYSNKCRRY-NH2; disulfide 1-16, 8-19, 15-26) | 0.00309 µM | 0.0229 µM | 
3 | CSCC[C@@H]1NC(=O)[C@H](CC(C)C)NC(=O)[C@H](CCCNC(=N)N)NC(=O)[C@H](CO)NC(=O)[C@@H]2CSSC[C@@H]3NC(=O)[C@H](CO)NC(=O)CNC(=O)[C@H]([C@@H](C)O)NC(=O)[C@H](CSSC[C@H](N)C(=O)N[C@@H](CCCCN)C(=O)NCC(=O)N[C@@H](CCCCN)C(=O)NCC(=O)N[C@@H](C)C(=O)N[C@@H](CCCCN)C(=O)N2)NC(=O)[C@H](CSSC[C@@H](C(N)=O)NC(=O)[C@H](CCCCN)NC(=O)CNC(=O)[C@H](CO)NC(=O)[C@H](CCCNC(=N)N)NC3=O)NC(=O)[C@H](CC(=O)O)NC(=O)[C@H](Cc2ccc(O)cc2)NC1=O [MVIIA] |  |  | effect of ICV administration in mice [6]: whole-body tremors; concentration of specific binding sites [7]: < 4.6; IC50 [3]: 0.03 µM; concentration of specific binding sites [8]: 56.6 and 79.1; Mean score (S.E.M), CA1 damage 0-4 [9]: 1.2 (0.36)
4 | C[C@@H]1NC(=O)CNC(=O)[C@H](CCCCN)NC(=O)CNC(=O)[C@H](CCCCN)NC(=O)[C@@H](N)CSSC[C@@H]2NC(=O)[C@@H]3CSSC[C@@H](C(N)=O)NC(=O)[C@H](CCCCN)NC(=O)CNC(=O)[C@H](CCCNC(=N)N)NC(=O)[C@H](CC(N)=O)NC(=O)[C@H](CSSC[C@H](NC(=O)[C@H](CO)NC1=O)C(=O)N[C@@H](Cc1c[nH]cn1)C(=O)N[C@@H](CCCNC(=N)N)C(=O)N[C@@H]([C@@H](C)O)C(=O)N[C@@H](CO)C(=O)N[C@@H](Cc1ccc(O)cc1)C(=O)N[C@@H](CC(=O)O)C(=O)N3)NC(=O)[C@H](CO)NC(=O)CNC(=O)[C@H]([C@@H](C)O)NC2=O [MVIIB] (H-CKGKGASCHRTSYDCCTGSCNRGKC-NH2; disulfide 1-16, 8-20, 15-25) | 0.0219 µM | 0.00049 µM | 
5 | CC(C)[C@@H]1NC(=O)[C@H](CCCNC(=N)N)NC(=O)[C@@H]2CSSC[C@@H]3NC(=O)[C@H](CO)NC(=O)[C@H](CO)NC(=O)[C@H](CSSC[C@H](N)C(=O)N[C@@H](CCCCN)C(=O)N4CCC[C@H]4C(=O)N4C[C@H](O)C[C@H]4C(=O)NCC(=O)N[C@@H](CO)C(=O)N4C[C@H](O)C[C@H]4C(=O)N2)NC(=O)[C@H](CSSC[C@@H](C(=O)NCC(N)=O)NC(=O)[C@H](CCCCN)NC(=O)[C@H](CCCCN)NC(=O)[C@H](CC(N)=O)NC(=O)[C@H](Cc2ccc(O)cc2)NC(=O)[C@H](CO)NC(=O)[C@H](CCCCN)NC3=O)NC(=O)[C@H](CC(N)=O)NC(=O)[C@H](Cc2ccc(O)cc2)NC(=O)[C@H](CO)NC(=O)[C@H](CO)NC1=O [RVIA] (H-CKP[Hyp]GS[Hyp]CRVSSYNCCSSCKSYNKKCG-NH2; disulfide 1-16, 8-19, 15-26) | 0.355 µM | 0.229 µM | Ki ([2]; Ki): 0.324 µM
6 | CC[C@H](C)[C@@H]1NC(=O)[C@H](CO)NC(=O)[C@H]([C@@H](C)O)NC(=O)[C@H](C(C)C)NC(=O)CNC(=O)[C@@H]2CSSC[C@@H]3NC(=O)[C@H](CCCNC(=N)N)NC(=O)CNC(=O)[C@H](CSSC[C@H](N)C(=O)N[C@@H](CCCNC(=N)N)C(=O)N[C@@H](CO)C(=O)N[C@@H](CO)C(=O)NCC(=O)N[C@@H](CO)C(=O)N4C[C@H](O)C[C@H]4C(=O)N[C@@H](Cc4c[nH]cn4)C(=O)N2)NC(=O)[C@H](CSSC[C@@H](C(=O)N[C@H](C(N)=O)[C@@H](C)O)NC(=O)[C@H](CCCCN)NC(=O)CNC(=O)[C@H](CCCNC(=N)N)NC(=O)[C@H](Cc2ccc(O)cc2)NC3=O)NC1=O [SVIA, H-CysArgSerSerGlySer4HypHisCysGlyValThrSerIleCysCysGly ArgCysTyrArgGlyLysCysThr-NH2] (H-CRSSGS[Hyp]HCGVTSICCGRCYRGKCT-NH2; disulfide 1-16, 9-19, 15-24) | > 1000 µM | > 1000 µM | binding affinity/activity (in words) [2]: relatively low affinity binding
7 | CC(C)C[C@@H]1NC(=O)[C@H](CCCCN)NC(=O)[C@@H](N)CSSC[C@@H]2NC(=O)[C@@H]3CSSC[C@@H](C(N)=O)NC(=O)[C@H](CCCCN)NC(=O)CNC(=O)[C@H](CO)NC(=O)[C@H](CCCNC(=N)N)NC(=O)CNC(=O)[C@H](CSSC[C@H](NC(=O)[C@H](CO)NC(=O)[C@H](CCC(N)=O)NC(=O)CNC(=O)[C@H](CCCCN)NC1=O)C(=O)N[C@@H](CCCNC(=N)N)C(=O)N[C@@H](CCCCN)C(=O)N[C@@H]([C@@H](C)O)C(=O)N[C@@H](CO)C(=O)N[C@@H](Cc1ccc(O)cc1)C(=O)N[C@@H](CC(=O)O)C(=O)N3)NC(=O)[C@H](CO)NC(=O)CNC(=O)[C@H](CO)NC2=O [SVIB] (H-CKLKGQSCRKTSYDCCSGSCGRSGKC-NH2; disulfide 1-16, 8-20, 15-26) | 0.00302 µM | 0.0057 µM | 
